In PMC10046377, “Inhibitors of the Oncogenic PA2G4-MYCN Protein-Protein Interface” (Cancers, 2023):

Tests used:
[1] = test system: TH-MYCN neuroblastoma mice; parameters: method as in PMID 31501192; conditions: cited from earlier work
[2] = test system: SK-N-BE(2)-C cells; assay: Alamar Blue cell viability assay, SK-N-BE(2)-C; type: cell-based; conditions: Homo sapiens, MYCN amplified neuroblastoma cell line
From the text: (§1) The MYCN amplified neuroblastoma cell line SK-N-BE(2)-C was kindly provided by Professor June Biedler (Memorial Sloan Kettering Cancer Centre, New York, NY, USA), and Kelly was obtained from European Collection of Cell Cultures. The two normal lung fibroblast cell lines (MRC-5 and WI-38) were purchased from ATCC. SK-N-BE(2)-C shMYCN#2 doxycycline-inducible cell and Kelly shMYCN#2 doxycycline-inducible cell were custom-made by GenScript (Piscataway, NJ, USA). SK-N-BE(2)-C, SK-N-BE(2)-C shMYCN#2, and SHEP MYCN3 doxycycline-inducible cells were maintained in Dulbecco’s modified Eagle’s medium (DMEM) (Invitrogen, Life Technologies, Waltham, MA, USA) with 10% foetal calf serum (FCS). Kelly and Kelly shMYCN#2 doxycycline-inducible cell were cultured in Roswell Park Memorial Institute (RPMI) 1640 (Invitrogen, Life Technologies) with 10% FCS. MRC-5 and WI-38 were cultured in Alpha-MEM media (Invitrogen, Life Technologies) with 10% FCS. All cells were not cultured for more than 2 months. All used cell lines were authenticated by Cell Bank Australia (Westmead, NSW, Australia) as being free from mycoplasma, and cultured at 37 °C and 5% CO2 in a humidifier incubator.
(§2) Cell viability was determined by the Alamar Blue assay (75 mg resazurin, 12.5 mg methylene blue, 164.5 mg potassium hexacyanoferrate (III), 211 mg potassium hexacyanoferrate (II) trihydrate in 500 mL of phosphate buffered saline). After 6 h incubation with Alamar Blue, the change of fluorescence was measured by Victor 3 multilabel Plate Reader (Perkin Elmer Australia, Melburne, Australia) at an excitation wavelength of 560 nm and an emission wavelength of 590 nm.
(§3) We have shown that the PA2G4 protein increased the half-life of the oncoprotein MYCN through direct binding, and competitive chemical inhibition of this bond by WS6 reduced tumorigenicity both in vitro and in vivo [11]. […] Here, we explored the structure–activity relationship (SAR) of WS6 analogue compounds with the aim to increase efficacy and reduce toxicity. […] The in vitro cytotoxicity of these 14 compounds were measured by cell viability assays using Alamar Blue in MYCN amplified human neuroblastoma (SK-N-BE(2)-C and Kelly) cell lines compared to non-malignant (WI-38, MRC-5) myofibroblast cell lines (Figure 1B,C and Supplementary Figure S1A).

[3] = test system: neuroblastoma cells (Kelly, SK-N-BE(2)-C) compared to non-malignant myofibroblasts (WI-38, MRC-5); assay: Therapeutic window, neuroblastoma cells versus non-malignant myofibroblasts; type: cell-based, human; conditions: non-malignant myofibroblast IC50 versus neuroblastoma cell IC50
Method: as §2, §3

[4] = test system: Kelly cells; assay: Alamar Blue cell viability assay, Kelly; type: cell-based; conditions: Homo sapiens, MYCN amplified neuroblastoma cell line
From the text: as §1, §2, §3

[5] = test system: MRC-5 cells; assay: Alamar Blue cell viability assay, MRC-5 non-malignant myofibroblasts; type: cell-based; conditions: Homo sapiens, MRC5
From the text: as §1, §2, §3

[6] = test system: WI-38 cells; assay: Alamar Blue cell viability assay, WI-38 non-malignant myofibroblasts; type: cell-based; conditions: Homo sapiens, read-out: IC50 WI-36
From the text: as §1, §2, §3

- IC50 [2]: 750 nM
Structure (SMILES): CN1CCN(Cc2ccc(NC(=O)Cc3ccc(Oc4cc(NC(=O)C5CC5)ncn4)cc3)cc2C(F)(F)F)CC1 [WS6, reference compound]
- tumorigenicity [1]: significantly decreased tumorigenicity
- Therapeutic window (fold difference) [3]: 2.1 fold
- IC50 [4]: 650 nM
- IC50 [5]: 1400 nM
- IC50 [6]: 1500 nM
